Measurements as given in the NIST ThermoML archive (doi:10.1016/j.tca.2015.06.017).

Test: xn = mol fraction of the nth substance listed
Details: Liquid, Vibrating tube method

CC(C)CCl [1-chloro-2-methylpropane] + CCCCCCC
mass density [kg/m3]
Details | 303.15 K | 313.15 K | 323.15 K
100 kPa, x2 = 0.0531 | 851.74 | 840.36 | 828.79
100 kPa, x2 = 0.1023 | 839.04 | 827.85 | 816.48
100 kPa, x2 = 0.2009 | 815.06 | 804.22 | 793.26
100 kPa, x2 = 0.3009 | 792.69 | 782.2 | 771.57
100 kPa, x2 = 0.3981 | 772.58 | 762.38 | 752.04
100 kPa, x2 = 0.4986 | 753.31 | 743.42 | 733.39
100 kPa, x2 = 0.5998 | 735.29 | 725.7 | 715.95
100 kPa, x2 = 0.7038 | 718.11 | 708.77 | 699.34
100 kPa, x2 = 0.7993 | 703.45 | 694.32 | 685.15
100 kPa, x2 = 0.8995 | 689.05 | 680.21 | 671.24
100 kPa, x2 = 0.9507 | 682.07 | 673.34 | 664.49
2000 kPa, x2 = 0.0531 | 853.98 | 842.7 | 831.42
2000 kPa, x2 = 0.1023 | 841.31 | 830.21 | 819.08
2000 kPa, x2 = 0.2009 | 817.39 | 806.67 | 795.85
2000 kPa, x2 = 0.3009 | 794.98 | 784.62 | 774.11
2000 kPa, x2 = 0.3981 | 774.81 | 764.76 | 754.54
2000 kPa, x2 = 0.4986 | 755.48 | 745.75 | 735.78
2000 kPa, x2 = 0.5998 | 737.44 | 727.98 | 718.28
2000 kPa, x2 = 0.7038 | 720.22 | 711.05 | 701.64
2000 kPa, x2 = 0.7993 | 705.49 | 696.57 | 687.35
2000 kPa, x2 = 0.8995 | 691.14 | 682.44 | 673.46
2000 kPa, x2 = 0.9507 | 684.19 | 675.59 | 666.75
5000 kPa, x2 = 0.0531 | 857.38 | 846.39 | 835.4
5000 kPa, x2 = 0.1023 | 844.68 | 833.87 | 823.02
5000 kPa, x2 = 0.2009 | 820.73 | 810.25 | 799.77
5000 kPa, x2 = 0.3009 | 798.27 | 788.13 | 777.97
5000 kPa, x2 = 0.3981 | 778.06 | 768.2 | 758.35
5000 kPa, x2 = 0.4986 | 758.67 | 749.13 | 739.53
5000 kPa, x2 = 0.5998 | 740.59 | 731.29 | 721.98
5000 kPa, x2 = 0.7038 | 723.33 | 714.28 | 705.28
5000 kPa, x2 = 0.7993 | 708.59 | 699.76 | 690.97
5000 kPa, x2 = 0.8995 | 694.18 | 685.54 | 677.02
5000 kPa, x2 = 0.9507 | 687.22 | 678.7 | 670.29
7000 kPa, x2 = 0.0531 | 859.64 | 848.82 | 838.13
7000 kPa, x2 = 0.1023 | 846.92 | 836.28 | 825.7
7000 kPa, x2 = 0.2009 | 822.92 | 812.64 | 802.4
7000 kPa, x2 = 0.3009 | 800.42 | 790.49 | 780.57
7000 kPa, x2 = 0.3981 | 780.18 | 770.54 | 760.9
7000 kPa, x2 = 0.4986 | 760.74 | 751.42 | 742.03
7000 kPa, x2 = 0.5998 | 742.6 | 733.56 | 724.42
7000 kPa, x2 = 0.7038 | 725.32 | 716.53 | 707.68
7000 kPa, x2 = 0.7993 | 710.55 | 701.96 | 693.36
7000 kPa, x2 = 0.8995 | 696.12 | 687.72 | 679.35
7000 kPa, x2 = 0.9507 | 689.13 | 680.86 | 672.58
10000 kPa, x2 = 0.0531 | 862.96 | 852.24 | 841.75
10000 kPa, x2 = 0.1023 | 850.21 | 839.68 | 829.31
10000 kPa, x2 = 0.2009 | 826.15 | 815.97 | 805.94
10000 kPa, x2 = 0.3009 | 803.62 | 793.76 | 784.05
10000 kPa, x2 = 0.3981 | 783.33 | 773.76 | 764.32
10000 kPa, x2 = 0.4986 | 763.84 | 754.58 | 745.38
10000 kPa, x2 = 0.5998 | 745.64 | 736.65 | 727.75
10000 kPa, x2 = 0.7038 | 728.31 | 719.62 | 710.93
10000 kPa, x2 = 0.7993 | 713.5 | 705.01 | 696.57
10000 kPa, x2 = 0.8995 | 699.03 | 690.72 | 682.48
10000 kPa, x2 = 0.9507 | 692.03 | 683.8 | 675.7
20000 kPa, x2 = 0.0531 | 873 | 863.01 | 853.08
20000 kPa, x2 = 0.1023 | 860.17 | 850.29 | 840.6
20000 kPa, x2 = 0.2009 | 835.94 | 826.35 | 817.1
20000 kPa, x2 = 0.3009 | 813.23 | 804.06 | 794.98
20000 kPa, x2 = 0.3981 | 792.77 | 783.83 | 775.23
20000 kPa, x2 = 0.4986 | 773.13 | 764.52 | 755.93
20000 kPa, x2 = 0.5998 | 754.8 | 746.45 | 738.09
20000 kPa, x2 = 0.7038 | 737.29 | 729.18 | 721.08
20000 kPa, x2 = 0.7993 | 722.32 | 714.39 | 706.61
20000 kPa, x2 = 0.8995 | 707.71 | 699.99 | 692.36
20000 kPa, x2 = 0.9507 | 700.65 | 692.96 | 685.54
30000 kPa, x2 = 0.0531 | 882.09 | 872.66 | 863.29
30000 kPa, x2 = 0.1023 | 869.13 | 859.97 | 850.64
30000 kPa, x2 = 0.2009 | 844.8 | 835.81 | 826.96
30000 kPa, x2 = 0.3009 | 821.91 | 813.29 | 804.68
30000 kPa, x2 = 0.3981 | 801.3 | 792.99 | 784.58
30000 kPa, x2 = 0.4986 | 781.52 | 773.45 | 765.27
30000 kPa, x2 = 0.5998 | 763.03 | 755.17 | 747.25
30000 kPa, x2 = 0.7038 | 745.43 | 737.72 | 730.1
30000 kPa, x2 = 0.7993 | 730.33 | 722.79 | 715.4
30000 kPa, x2 = 0.8995 | 715.6 | 708.23 | 700.96
30000 kPa, x2 = 0.9507 | 708.5 | 701.14 | 694.07
40000 kPa, x2 = 0.0531 | 890.44 | 881.46 | 872.52
40000 kPa, x2 = 0.1023 | 877.39 | 868.66 | 859.81
40000 kPa, x2 = 0.2009 | 852.91 | 844.37 | 835.84
40000 kPa, x2 = 0.3009 | 829.87 | 821.69 | 813.46
40000 kPa, x2 = 0.3981 | 809.15 | 801.27 | 793.25
40000 kPa, x2 = 0.4986 | 789.24 | 781.56 | 773.87
40000 kPa, x2 = 0.5998 | 770.61 | 763.14 | 755.68
40000 kPa, x2 = 0.7038 | 752.83 | 745.56 | 738.29
40000 kPa, x2 = 0.7993 | 737.59 | 730.5 | 723.4
40000 kPa, x2 = 0.8995 | 722.73 | 715.76 | 708.85
40000 kPa, x2 = 0.9507 | 715.55 | 708.64 | 701.87
50000 kPa, x2 = 0.0531 | 898.25 | 889.63 | 881.03
50000 kPa, x2 = 0.1023 | 885.12 | 876.7 | 868.25
50000 kPa, x2 = 0.2009 | 860.41 | 852.23 | 844.11
50000 kPa, x2 = 0.3009 | 837.32 | 829.5 | 821.56
50000 kPa, x2 = 0.3981 | 816.52 | 808.88 | 801.14
50000 kPa, x2 = 0.4986 | 796.41 | 789.11 | 781.63
50000 kPa, x2 = 0.5998 | 777.65 | 770.57 | 763.29
50000 kPa, x2 = 0.7038 | 759.78 | 752.8 | 745.73
50000 kPa, x2 = 0.7993 | 744.45 | 737.67 | 730.8
50000 kPa, x2 = 0.8995 | 729.47 | 722.82 | 716.06
50000 kPa, x2 = 0.9507 | 722.23 | 715.59 | 709.05
60000 kPa, x2 = 0.0531 | 905.4 | 897.18 | 888.87
60000 kPa, x2 = 0.1023 | 892.33 | 884.27 | 876.05
60000 kPa, x2 = 0.2009 | 867.48 | 859.72 | 851.78
60000 kPa, x2 = 0.3009 | 844.24 | 836.81 | 829.15
60000 kPa, x2 = 0.3981 | 823.28 | 815.99 | 808.64
60000 kPa, x2 = 0.4986 | 803.13 | 796.1 | 788.91
60000 kPa, x2 = 0.5998 | 784.27 | 777.45 | 770.47
60000 kPa, x2 = 0.7038 | 766.25 | 759.57 | 752.78
60000 kPa, x2 = 0.7993 | 750.88 | 744.29 | 737.68
60000 kPa, x2 = 0.8995 | 735.73 | 729.33 | 722.83
60000 kPa, x2 = 0.9507 | 728.44 | 722.04 | 715.76
65000 kPa, x2 = 0.0531 | 908.87 | 900.74 | 892.62
65000 kPa, x2 = 0.1023 | 895.79 | 887.8 | 879.77
65000 kPa, x2 = 0.2009 | 870.84 | 863.12 | 855.45
65000 kPa, x2 = 0.3009 | 847.58 | 840.18 | 832.75
65000 kPa, x2 = 0.3981 | 826.58 | 819.3 | 812.18
65000 kPa, x2 = 0.4986 | 806.34 | 799.37 | 792.37
65000 kPa, x2 = 0.5998 | 787.42 | 780.62 | 773.88
65000 kPa, x2 = 0.7038 | 769.32 | 762.72 | 756.14
65000 kPa, x2 = 0.7993 | 753.84 | 747.34 | 741.15
65000 kPa, x2 = 0.8995 | 738.7 | 732.38 | 726.04
65000 kPa, x2 = 0.9507 | 731.35 | 725.02 | 718.95
